Assay results published in patent publication US20040006070A1, “Intraspinal continuous infusion of midazolam hydrochloride for the treatment of pain” (priority 2002, published 2004).
Values joined by “and” are separate entries in the source; they are usually repeats but may differ in a detail not shown here. Equal values may be shown once. “Also recorded” adds a separate entry of the source. Where a name gives a salt, the structure may show the parent alone.

What was measured:
[1] = Gait monitoring, four-grade scale of behavioral and motor changes; assay type: in vivo, sheep; design: key: Grade 0: animal standing, sheep is able to rise and ambulate without any difficulty; Grade 1: Shuffling of either rear leg or slight limp; slight distortion of normal spinal axis; Grade 2: Loss of righting reflex in one of the rear legs, sheep able to stand without assistance, but with some difficulty; Grade 3: Inability to maintain standing posture; attempts to help animal stand are unsuccessful; details: day (1-43)
Excerpt: Daily rectal temperatures were taken and any behavioral/motor changes were noted. Gait monitoring will be conducted as described below based on a four-grade scale for the evaluation of behavioral and motor changes. Grade 0: animal standing, sheep is able to rise and ambulate without any difficulty. Grade 1: Shuffling of either rear leg or slight limp; slight distortion of normal spinal axis. Grade 2: Loss of righting reflex in one of the rear legs, sheep able to stand without assistance, but with some difficulty. Grade 3: Inability to maintain standing posture; attempts to help animal stand are unsuccessful.

[2] = CSF fluid analysis and routine cultures; assay type: in vivo, sheep; details: for CSF RBC Count Post Mortum / CSF WBC Count Post Mortum / CSF Glucose Post Mortum / CSF Total Protein Post Mortum: day 43
Experimental: On day 43 after venous blood samples were taken, animals were euthanized (Beuthanasia 1 ml/4.5 kg IV bolus injection). CSF samples were obtained for analysis (1-2 ml drawn from L-7/S-1 after a laminectomy was performed to expose the dura) of glucose, total protein, and cell differential.

[3] = tested on: neuropathic pain model in the sheep; assay: Neuropathic pain model in sheep, mechanical stimulus device; assay type: in vivo; details: for Mechanical Stimulus device: sheep Rowdy #819
Excerpt: The neuropathic pain model in the sheep is created by placing four tight ligatures around the median, radial, or ulnar nerve (or a combination thereof) with 0-chromic gut suture. This method produces a chronic painful peripheral mononeuropathy which may be related to those conditions seen in humans with causalgia and reflex sympathetic dystrophy. To date, the onset of neuropathic pain has occurred 1 to 9 days postoperatively, as evidenced by the display of painful behavior such as hyperalgesia, not bearing weight or holding the operated leg off the ground. The duration of the painful behavior lasted 16 to 62 days. […] It has been difficult to identify a segment of the median nerve that is consistently appropriate to achieve the neuropathic pain behavior. The inventors are continuing to test different segments of the median nerve and other mixed sensory/motor nerves to consistently produce this behavior. Of the five animals that developed neuropathic pain, three were treated with intrathecal morphine or midazolam as single agents.
In the sheep with neuropathic pain treated by midazolam alone, intrathecal administration of midazolam was initiated at 3 to 5 mg/day and the dose was escalated to up to 15 mg/day. […] This analgesia was documented using a mechanical stimulus device and/or behavior monitoring. The mechanical stimulus device measures pressure applied to a blunt pin against the foreleg. The pressure at which the animal lifts its leg in response to the painful stimulus is documented. In the sheep monitored by this device, administration of intrathecal midazolam allowed endurance of up to 18 Newtons of pressure (cut off to prevent tissue damage was set at 19.99 N) compared to the baseline (pretreatment) pressure endured of 9.59 N.
A mechanical stimulus device as described in Example 6, and/or behavior monitoring as described in Example 5 is used to test analgesic effect in the neuropathic pain model. To compare the effects of midazolam using the mechanical stimulus device, the data were accumulated over the testing period, and all response latencies were expressed as percentage of the maximum possible effect (MPE) where: [formula]
This test will be conducted prior to initiation of midazolam infusion and again on days 1, 3, 7, 15, 22, 29, 36, 43 during infusion. The mechanical stimulus device has been developed and validated (Nolan et al. 1987; Kyles et al., 1995) for pain testing in the sheep model.

[4] = Toxicity in neuropathic pain sheep: clinical signs, necropsy, histopathology; assay type: in vivo
Excerpt: Animals will be observed daily for any signs of clinical toxicity such as limping and loss of appetite. At necropsy the spinal cord will be examined for any gross changes. Histopathologic evaluation will be performed on all animals after drug studies are complete. These examinations will detect any neurotoxicity that may be present due to the spinal infusion of midazolam.

[5] = CSF, double blinded study, individual sheep, dose group not given, hydrochloride
[6] = open label sheep Red #473, 3 mg/day
[7] = open label sheep Sandy #518, 5 mg/day
[8] = open label sheep Toad #498, 10 mg/day

Cc1ncc2n1-c1ccc(Cl)cc1C(c1ccccc1F)=NC2 [Midazolam, midazolam hydrochloride]
Gait Normal 0 ([1]; double blinded sheep Chicken Hawk #87, 5 mg/day intrathecal infusion): 0 | Gait Normal 0 ([1]; double blinded sheep Elmer Fudd #437, 5 mg/day intrathecal infusion): 0 | Gait Normal 0 ([1]; double blinded sheep Leghorn II #815, 15 mg/day intrathecal infusion): 0 | Gait Normal 0 ([1]; double blinded sheep Petunia #439, 15 mg/day intrathecal infusion): 0 | Gait Normal 0 ([1]; double blinded sheep Porky #402, 5 mg/day intrathecal infusion): 0 | Gait Normal 0 ([1]; double blinded sheep Roadrunner #84, 15 mg/day intrathecal infusion): 0 | Gait Normal 0 ([1]; open label sheep #457 Tazz, 15 mg/day intrathecal infusion): 0 | Gait Normal 0 ([1]; open label sheep #498 Toad, 10 mg/day intrathecal infusion): 0 | Gait Normal 0 ([1]; open label sheep #518 Sandy, 5 mg/day intrathecal infusion): 0 | Gait Normal 0 ([1]; open label sheep Dot #85, 15 mg/day intrathecal infusion): 0 | Gait Normal 0 ([1]; open label sheep Wacko #83, 15 mg/day intrathecal infusion): 0 | Gait Normal 0 ([1]; open label sheep Yacko #91, 15 mg/day intrathecal infusion): 0 | Gross Exam Post Mortum ([2]; CSF, double blinded study, individual sheep, dose group (5 or 15 mg/day or saline) not given, hydrochloride): cloudy; also recorded: Colorless; also recorded: clear; also recorded: Pale pink; also recorded: Cloudy** | Glucose Post Mortum [2, 5]: 35 mg/dL and 25 mg/dL and 31 mg/dL and 38 mg/dL and 24 mg/dL and 47 mg/dL and 34 mg/dL | RBC Count Post Mortum [2, 5]: 480 µL⁻¹ and 725 µL⁻¹ and 4250 µL⁻¹ and 63 µL⁻¹ and 2 µL⁻¹ and 4 µL⁻¹ and 1325 µL⁻¹ | Total Protein Post Mortum [2, 5]: 73 mg/dL and 40 mg/dL and 47 mg/dL and 35 mg/dL and 59 mg/dL and 39 mg/dL and 42 mg/dL | WBC Count Post Mortum [2, 5]: 12 µL⁻¹ and 80 µL⁻¹ and 22 µL⁻¹ and 8 µL⁻¹ and 1 µL⁻¹ and 4 µL⁻¹ and 29 µL⁻¹ | Routine Cultures Post Mortum ([2]; CSF, individual sheep, cell wraps 'No' / 'Growth', dose group not given): No | CSF RBC Count Post Mortum [2, 6]: 772 µL⁻¹ | CSF WBC Count Post Mortum [2, 6]: 4 µL⁻¹ | CSF Glucose Post Mortum [2, 7]: 36 mg/dL | CSF RBC Count Post Mortum [2, 7]: 56 µL⁻¹ | CSF Total Protein Post Mortum [2, 7]: 46.1 mg/dL | CSF WBC Count Post Mortum [2, 7]: 206 µL⁻¹ | CSF Glucose Post Mortum [2, 8]: 40 mg/dL | CSF RBC Count Post Mortum [2, 8]: 2160 µL⁻¹ | CSF Total Protein Post Mortum [2, 8]: 39.6 mg/dL | CSF WBC Count Post Mortum [2, 8]: 36 µL⁻¹ | pressure endured (mechanical stimulus device) ([3]; Sheep #819, cut off 19.99 N, baseline (pretreatment) 9.59 N): up to 18 Newtons | analgesia ([3]; neuropathic pain sheep, midazolam alone, 3 to 5 mg/day escalated up to 15 mg/day intrathecal): significant analgesia | Mechanical Stimulus device ([3]; 10 mg): 13.7N | Mechanical Stimulus device ([3]; 15 mg): 7.0N | tolerability ([4]; intrathecal up to 5 mg/day): tolerated well | necropsy, spinal cord lesions ([4]; sheep #980 Dudley): did not exhibit any spinal cord lesions
